The target in one experiment is cynomolgus Siglec-2/CD22 (Macaca fascicularis, UniProt A0A2K5WCZ6). The experiment in a line: biochemical. The following applies: SPR, steady-state analysis; read-out: Affinity cyno CD22. It is filed as binding. How it is done:
(§1) Prior to immobilization, CD22 proteins were treated with SialoExo (Genovis, Cat #G1-SM1-020) for 4 hours at 37° C. to remove native sialic acid residues.
Surface preparation for cyno CD22 protein consisted of amine coupling to Cytiva CM5 chip (Cytiva, Cat #BR100530) using the Cytiva amine coupling kit Type 2 (Cytiva, Cat #BR100633). Following the standard amine coupling protocols, EDC and NHS from the kit were mixed 1:1 and injected over flow cells 1 and 2. […] Any active carboxy groups were then capped with 1M Ethanolamine, pH 8.5 for 420s on flow cells 1 and 2.
(§2) Binding experiments of Siglec-ligand conjugated proteins or Siglec ligand compounds were performed on the surfaces prepared above in 10 mM HEPES, 150 mM NaCl, 0.05% Tween-20, pH 7.5, 1% DMSO as the running buffer. […] The compounds were then allowed to dissociate from the surface for 120 seconds. […] Solvent correction was performed using 0.5, 1, 1.5, and 2% DMSO spike into running buffer without DMSO. […] Data was analyzed using steady-state analysis in Biacore Insight Evaluation Software, version 3.0 for Siglec ligand compounds.

Experiment [1] addresses T1, mouse Siglec-2-Fc-Avi (CD22) (Mus musculus, UniProt P35329).
T1 construct: made in house
T1 sequence (P35329 22-708 limits assumed): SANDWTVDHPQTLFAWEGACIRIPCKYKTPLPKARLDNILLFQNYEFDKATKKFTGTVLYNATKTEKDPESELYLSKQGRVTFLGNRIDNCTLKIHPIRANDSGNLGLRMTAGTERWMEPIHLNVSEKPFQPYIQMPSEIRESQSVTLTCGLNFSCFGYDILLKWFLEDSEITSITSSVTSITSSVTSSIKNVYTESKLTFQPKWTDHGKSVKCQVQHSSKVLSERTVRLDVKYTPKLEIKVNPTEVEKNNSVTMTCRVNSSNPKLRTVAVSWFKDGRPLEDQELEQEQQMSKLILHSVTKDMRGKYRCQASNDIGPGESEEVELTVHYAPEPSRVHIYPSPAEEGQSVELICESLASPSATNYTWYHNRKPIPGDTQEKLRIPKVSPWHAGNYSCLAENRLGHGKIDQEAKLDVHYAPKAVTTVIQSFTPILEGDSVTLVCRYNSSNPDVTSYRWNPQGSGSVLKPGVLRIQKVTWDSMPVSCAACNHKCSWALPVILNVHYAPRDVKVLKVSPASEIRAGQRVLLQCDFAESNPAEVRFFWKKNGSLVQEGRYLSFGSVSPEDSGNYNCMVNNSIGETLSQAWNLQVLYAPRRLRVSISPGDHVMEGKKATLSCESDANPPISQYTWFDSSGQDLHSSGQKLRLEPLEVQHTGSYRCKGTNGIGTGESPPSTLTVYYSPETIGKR
Nature of the experiment: SPR binding affinity to mouse CD22. Conditions: steady-state analysis. How it is done:
as §1
(§3) Capture of biotinylated CD22 constructs was performed using a Cytiva SA chip (BR100398) on a Biacore 8K instrument.
as §2
(Surface plasmon resonance follows binding to a sensor surface in real time, without labels.)

Experiment [2] concerns the target T2, human Siglec-2/CD22 protein (Homo sapiens, UniProt P20273).
T2 construct: purchased Acro Biosystems SI2-H82E3
T2 sequence (P20273 20-847): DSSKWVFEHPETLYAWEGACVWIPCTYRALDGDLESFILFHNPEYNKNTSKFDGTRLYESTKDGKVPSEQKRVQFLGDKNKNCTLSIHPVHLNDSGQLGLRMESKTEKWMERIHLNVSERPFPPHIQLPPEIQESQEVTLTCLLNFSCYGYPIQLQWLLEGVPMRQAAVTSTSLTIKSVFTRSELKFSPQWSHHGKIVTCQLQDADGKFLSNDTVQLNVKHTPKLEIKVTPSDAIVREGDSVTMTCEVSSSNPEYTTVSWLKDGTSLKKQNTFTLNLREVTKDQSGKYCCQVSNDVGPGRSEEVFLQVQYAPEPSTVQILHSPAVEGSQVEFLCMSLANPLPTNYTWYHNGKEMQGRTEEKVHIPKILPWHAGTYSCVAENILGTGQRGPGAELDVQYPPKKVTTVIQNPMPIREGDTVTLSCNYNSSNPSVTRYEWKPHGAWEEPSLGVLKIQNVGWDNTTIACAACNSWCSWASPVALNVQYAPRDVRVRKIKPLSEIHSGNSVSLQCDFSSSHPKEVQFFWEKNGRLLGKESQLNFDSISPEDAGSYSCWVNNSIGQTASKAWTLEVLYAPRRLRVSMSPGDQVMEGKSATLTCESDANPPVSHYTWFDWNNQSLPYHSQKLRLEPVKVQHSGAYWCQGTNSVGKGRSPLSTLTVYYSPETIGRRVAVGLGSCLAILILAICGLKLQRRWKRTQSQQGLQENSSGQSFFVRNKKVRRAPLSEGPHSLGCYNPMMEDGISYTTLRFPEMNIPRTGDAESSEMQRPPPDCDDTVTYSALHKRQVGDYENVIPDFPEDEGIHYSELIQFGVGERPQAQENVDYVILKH
The experiment in a line: SPR binding affinity to human CD22. Conditions: steady-state analysis. How it is done:
as §1, §3, §2

The structures appear in SMILES notation.

cynomolgus Siglec-2/CD22, sequence (A0A2K5WCZ6 entry or part of it): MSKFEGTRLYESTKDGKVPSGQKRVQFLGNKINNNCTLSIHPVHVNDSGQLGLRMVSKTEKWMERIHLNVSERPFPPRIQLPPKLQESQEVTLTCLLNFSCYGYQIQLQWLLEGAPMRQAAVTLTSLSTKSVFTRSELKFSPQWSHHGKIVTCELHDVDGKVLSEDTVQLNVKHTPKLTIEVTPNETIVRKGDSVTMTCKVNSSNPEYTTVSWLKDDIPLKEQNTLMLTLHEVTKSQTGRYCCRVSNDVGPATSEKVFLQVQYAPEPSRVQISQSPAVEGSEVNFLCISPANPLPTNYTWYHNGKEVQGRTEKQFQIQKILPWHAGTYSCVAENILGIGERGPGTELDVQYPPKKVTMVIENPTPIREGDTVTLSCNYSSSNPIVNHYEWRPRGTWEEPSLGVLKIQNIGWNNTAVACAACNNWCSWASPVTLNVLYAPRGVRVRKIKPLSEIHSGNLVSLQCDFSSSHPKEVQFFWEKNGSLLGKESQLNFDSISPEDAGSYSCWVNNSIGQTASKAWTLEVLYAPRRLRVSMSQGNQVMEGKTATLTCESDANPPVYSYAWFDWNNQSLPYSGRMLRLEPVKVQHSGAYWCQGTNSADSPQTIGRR

In the case of `C#CCOCCCCCCO[C@]1(C(=O)O)C[C@H](O)[C@@H](NC(=O)CO)[C@H]([C@H](O)[C@H](O)CNC(=O)Cc2ccc(-c3ccc4[nH]cc(C)c4c3)cc2)O1` [Compound 1, (2R,4S,5R,6R)-6-((1R,2R)-1,2-dihydroxy-3-(2-(4-(3-methyl-1H-indol-5-yl)phenyl)acetamido)propyl)-4-hydroxy-5-(2-hydroxyacetamido)-2-((6-(prop-2-yn-1-yloxy)hexyl)oxy)tetrahydro-2H-pyran-2-carboxylic acid], the Kd (at cynomolgus Siglec-2/CD22; in experiment [1]; in experiment [2]) was less than 1 µM each time.

With `C#CCOCCOCCO[C@]1(C(=O)O)C[C@H](O)[C@@H](NC(=O)CO)[C@H]([C@H](O)[C@H](O)CNC(=O)Cc2ccc(-c3ccc4[nH]ccc4c3)cc2)O1` [Compound 4, (2R,4S,5R,6R)-6-((1R,2R)-3-(2-(4-(1H-indol-5-yl)phenyl)acetamido)-1,2-dihydroxypropyl)-4-hydroxy-5-(2-hydroxyacetamido)-2-(2-(2-(prop-2-yn-1-yloxy)ethoxy)ethoxy)tetrahydro-2H-pyran-2-carboxylic acid], the Kd (on cynomolgus Siglec-2/CD22; in experiment [1]; in experiment [2]) was less than 1 µM throughout.

Regarding `C#CCOCCCCCCO[C@]1(C(=O)O)C[C@H](O)[C@@H](NC(=O)CO)[C@H]([C@H](O)[C@H](O)CNC(=O)Cc2ccc3cc[nH]c3c2)O1` [Compound 5, (2R,4S,5R,6R)-6-((1R,2R)-3-(2-(1H-indol-6-yl)acetamido)-1,2-dihydroxypropyl)-4-hydroxy-5-(2-hydroxyacetamido)-2-((6-(prop-2-yn-1-yloxy)hexyl)oxy)tetrahydro-2H-pyran-2-carboxylic acid], the Kd at cynomolgus Siglec-2/CD22 was less than 1 µM; in experiment [1], 1 to 10 µM; in experiment [2], less than 1 µM.

As to `C#CCOCCCCCCO[C@]1(C(=O)O)C[C@H](O)[C@@H](NC(=O)CO)[C@H]([C@H](O)[C@H](O)CNC(=O)Cc2ccc3[nH]ccc3c2)O1` [Compound 6, (2R,4S,5R,6R)-6-((1R,2R)-3-(2-(1H-indol-5-yl)acetamido)-1,2-dihydroxypropyl)-4-hydroxy-5-(2-hydroxyacetamido)-2-((6-(prop-2-yn-1-yloxy)hexyl)oxy)tetrahydro-2H-pyran-2-carboxylic acid], the Kd on cynomolgus Siglec-2/CD22 is less than 1 µM; in experiment [1], 1 to 10 µM; in experiment [2], less than 1 µM.

For `C#CCCOc1ccc(CO[C@]2(C(=O)O)C[C@H](O)[C@@H](NC(=O)CO)[C@H]([C@H](O)[C@H](O)CNC(=O)Cc3ccc4[nH]c(=O)[nH]c4c3)O2)cc1` [Compound 7, (2R,4S,5R,6R)-2-((4-(but-3-yn-1-yloxy)benzyl)oxy)-6-((1R,2R)-1,2-dihydroxy-3-(2-(2-oxo-2,3-dihydro-1H-benzo[d]imidazol-5-yl)acetamido)propyl)-4-hydroxy-5-(2-hydroxyacetamido)tetrahydro-2H-pyran-2-carboxylic acid], the results for the Kd (at cynomolgus Siglec-2/CD22; in experiment [1]; in experiment [2]) were greater than 10 µM, greater than 10 µM and 1 to 10 µM, respectively.

In the case of `C#CCCOc1ccc(CO[C@]2(C(=O)O)C[C@H](O)[C@@H](NC(=O)CO)[C@H]([C@H](O)[C@H](O)CNC(=O)Cc3ccc4nc[nH]c4c3)O2)cc1` [Compound 8, (2R,4S,5R,6R)-6-((1R,2R)-3-(2-(1H-benzo[d]imidazol-6-yl)acetamido)-1,2-dihydroxypropyl)-2-((4-(but-3-yn-1-yloxy)benzyl)oxy)-4-hydroxy-5-(2-hydroxyacetamido)tetrahydro-2H-pyran-2-carboxylic acid], the Kd (at cynomolgus Siglec-2/CD22; in experiment [1]; in experiment [2]) was 1 to 10 µM in each case.

Turning to `C#CCCOc1ccc(CO[C@]2(C(=O)O)C[C@H](O)[C@@H](NC(=O)CO)[C@H]([C@H](O)[C@H](O)CNC(=O)Cc3ccc4nn[nH]c4c3)O2)cc1` [Compound 9, (2R,4S,5R,6R)-6-((1R,2R)-3-(2-(1H-benzo[d][1,2,3]triazol-6-yl)acetamido)-1,2-dihydroxypropyl)-2-((4-(but-3-yn-1-yloxy)benzyl)oxy)-4-hydroxy-5-(2-hydroxyacetamido)tetrahydro-2H-pyran-2-carboxylic acid], the Kd (at cynomolgus Siglec-2/CD22; in experiment [1]; in experiment [2]) was 1 to 10 µM throughout.

Turning to `C#CCOCCOCCO[C@]1(C(=O)O)C[C@H](O)[C@@H](NC(=O)CO)[C@H]([C@H](O)[C@H](O)CNC(=O)Cc2ccc3c(c2)NC(=O)C3)O1` [Compound 12, (2R,4S,5R,6R)-6-((1R,2R)-1,2-dihydroxy-3-(2-(2-oxoindolin-6-yl)acetamido)propyl)-4-hydroxy-5-(2-hydroxyacetamido)-2-(2-(2-(prop-2-yn-1-yloxy)ethoxy)ethoxy)tetrahydro-2H-pyran-2-carboxylic acid], the Kd at cynomolgus Siglec-2/CD22 is greater than 10 µM; in experiment [2] it was 1 to 10 µM.

Take `C#CCOCCOCCO[C@]1(C(=O)O)C[C@H](O)[C@@H](NC(=O)CO)[C@H]([C@H](O)[C@H](O)CNC(=O)Cc2ccc(-c3ccncc3)cc2)O1` [Compound 72, (2R,4S,5R,6R)-6-((1R,2R)-1,2-dihydroxy-3-(2-(4-(pyridin-4-yl)phenyl)acetamido)propyl)-4-hydroxy-5-(2-hydroxyacetamido)-2-(2-(2-(prop-2-yn-1-yloxy)ethoxy)ethoxy)tetrahydro-2H-pyran-2-carboxylic acid]: the Kd at cynomolgus Siglec-2/CD22 was greater than 10 µM; in experiment [2], 1 to 10 µM.

With `CC(=O)NCCOCCOCCOCCOCCNC(=O)NCCCCCCO[C@]1(C(=O)O)C[C@H](O)[C@@H](NC(C)=O)[C@H]([C@H](O)[C@H](O)CNC(=O)c2cccc(Cl)c2)O1` [Compound 269, (2R,4S,5R,6R)-5-acetamido-6-((1R,2R)-3-(3-chlorobenzamido)-1,2-dihydroxypropyl)-2-((2,19-dioxo-6,9,12,15-tetraoxa-3,18,20-triazahexacosan-26-yl)oxy)-4-hydroxytetrahydro-2H-pyran-2-carboxylic acid], the Kd in experiment [1] was greater than 10 µM; in experiment [2] it was 1 to 10 µM.

For `CC(=O)NCCOCCOCCOCCOCCNC(=O)CCCCCCO[C@]1(C(=O)O)C[C@H](O)[C@@H](NC(C)=O)[C@H]([C@H](O)[C@H](O)CNC(=O)c2cccc(Cl)c2)O1` [Compound 270, (2R,4S,5R,6R)-5-acetamido-6-((1R,2R)-3-(3-chlorobenzamido)-1,2-dihydroxypropyl)-2-((2,19-dioxo-6,9,12,15-tetraoxa-3,18-diazapentacosan-25-yl)oxy)-4-hydroxytetrahydro-2H-pyran-2-carboxylic acid], the results for the Kd in experiment [1] and in experiment [2] were greater than 10 µM and 1 to 10 µM, respectively.

The values are drawn from patent US20250064941A1, “SIGLEC LIGANDS, CONJUGATES, AND METHODS OF USE THEREOF” (Osprey Biopharmaceuticals, Inc., priority 2023, published 2025).
